We go through 13 compounds from ChEMBL document CHEMBL1909046, “DrugMatrix in vitro pharmacology data”.

As usually defined, the IC50 is the midpoint of a concentration-inhibition curve. By Ki is commonly meant a measure of affinity in units of concentration, obtained from inhibition or displacement.

Test [1] concerns the target Glycine receptor (Rattus norvegicus, UniProt P22771+P24524+P07727+P20781). The class given is cell membranes, Wistar, Spinal cord, Membrane. Note: in other assays of this panel Not Active means under 50% inhibition at 10 µM.
Test [2] in a line: DRUGMATRIX: Glutamate, NMDA, Agonism radioligand binding (ligand: [3H] CGP-39653). As to conditions: Not Active = under 50% inhibition at 10 µM. It is filed as cell membranes, Rattus norvegicus, Wistar, Cerebral cortex, Membrane.
Test [3] concerns the target T1, Muscarinic acetylcholine receptor M2 (Homo sapiens, UniProt P08172). Note: in other assays of this panel Not Active means under 50% inhibition at 10 µM.
T1 sequence (P08172 whole entry): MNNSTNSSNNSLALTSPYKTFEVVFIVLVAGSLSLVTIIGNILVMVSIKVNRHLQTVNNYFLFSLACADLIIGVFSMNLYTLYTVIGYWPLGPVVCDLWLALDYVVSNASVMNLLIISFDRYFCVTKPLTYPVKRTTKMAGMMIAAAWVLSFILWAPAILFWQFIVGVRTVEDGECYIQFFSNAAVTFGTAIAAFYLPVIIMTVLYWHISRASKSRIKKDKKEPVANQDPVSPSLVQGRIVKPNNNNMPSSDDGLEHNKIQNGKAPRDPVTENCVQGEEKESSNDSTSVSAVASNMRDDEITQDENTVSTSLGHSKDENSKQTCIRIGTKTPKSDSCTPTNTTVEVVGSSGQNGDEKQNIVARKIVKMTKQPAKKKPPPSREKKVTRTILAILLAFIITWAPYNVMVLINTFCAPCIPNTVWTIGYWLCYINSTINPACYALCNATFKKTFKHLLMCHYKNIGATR
It is filed as cell membranes, CHO-K1, Membrane.

Test [4] addresses Prostaglandin G/H synthase 1 (Homo sapiens, UniProt P23219). Put plainly: biochemical. It is filed as tissue-based, Platelet. The note with it: platelet.
Test [5] addresses Substance-P receptor (Homo sapiens, UniProt P25103). It is filed as cell membranes, CHO, Membrane. The note with it: cho.
Test [6] can be described thus: DRUGMATRIX: GABAA, Flunitrazepam, Central radioligand binding (ligand: [3H] Flunitrazepam). As to conditions: Not Active = under 50% inhibition at 10 µM. It is filed as cell membranes, Rattus norvegicus, Wistar, Brain, Membrane.
A short description of test [7]: DRUGMATRIX: Atrial Natriuretic Factor (ANF) radioligand binding (ligand: [125I] ANF (rat)). It is filed as cell membranes, Cavia porcellus, Dunkin-Hartley, Adrenal gland, Membrane. The note with it: Not Active = under 50% inhibition at 10 µM.

Substance-P receptor, sequence (P25103 whole entry): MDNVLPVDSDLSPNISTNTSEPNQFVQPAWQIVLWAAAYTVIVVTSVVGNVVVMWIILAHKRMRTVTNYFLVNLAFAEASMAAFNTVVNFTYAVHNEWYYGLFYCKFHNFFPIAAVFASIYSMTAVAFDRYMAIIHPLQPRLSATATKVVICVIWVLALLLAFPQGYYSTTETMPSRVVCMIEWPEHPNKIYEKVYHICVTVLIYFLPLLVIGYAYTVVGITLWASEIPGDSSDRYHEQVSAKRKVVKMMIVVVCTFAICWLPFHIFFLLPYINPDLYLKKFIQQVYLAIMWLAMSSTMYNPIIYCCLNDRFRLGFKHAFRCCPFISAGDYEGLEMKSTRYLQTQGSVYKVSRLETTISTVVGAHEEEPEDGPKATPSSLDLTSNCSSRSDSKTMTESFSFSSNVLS
Prostaglandin G/H synthase 1, sequence (P23219 whole entry): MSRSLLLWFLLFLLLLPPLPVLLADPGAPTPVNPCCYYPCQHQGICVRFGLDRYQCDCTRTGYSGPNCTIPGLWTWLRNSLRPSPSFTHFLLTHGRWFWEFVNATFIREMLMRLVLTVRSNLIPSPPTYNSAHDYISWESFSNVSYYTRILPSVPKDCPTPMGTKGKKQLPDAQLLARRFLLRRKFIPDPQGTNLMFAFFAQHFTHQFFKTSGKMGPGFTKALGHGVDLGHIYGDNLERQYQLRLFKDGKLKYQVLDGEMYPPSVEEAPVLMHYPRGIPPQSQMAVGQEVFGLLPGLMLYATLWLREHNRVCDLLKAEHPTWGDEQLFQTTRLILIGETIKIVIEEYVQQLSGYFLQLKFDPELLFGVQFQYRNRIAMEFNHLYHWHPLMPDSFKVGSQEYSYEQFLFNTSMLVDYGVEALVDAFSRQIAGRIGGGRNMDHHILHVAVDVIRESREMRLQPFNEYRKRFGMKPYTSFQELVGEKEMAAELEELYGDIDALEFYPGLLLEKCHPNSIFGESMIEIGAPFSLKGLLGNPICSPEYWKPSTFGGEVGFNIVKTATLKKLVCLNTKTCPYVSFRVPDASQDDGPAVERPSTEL

On to `C[C@@H]1O[C@@H](O[C@H]2C[C@@H](O)[C@]3(CO)[C@H]4[C@H](O)C[C@]5(C)[C@@H](C6=CC(=O)OC6)CC[C@]5(O)[C@@H]4CC[C@]3(O)C2)[C@H](O)[C@H](O)[C@H]1O` [OUABAIN], for which the IC50 entry in test [1], in test [2], in test [3] (cho-k1), in test [4], in test [5] and in test [6] was “Not Active” in each case. Also, in test [7], the IC50 result is recorded as “Not Active”. For the same compound, the Ki result in test [2], in test [6] and in test [7] was “Not Active” throughout.
Regarding `NC(=O)N1c2ccccc2CC(=O)c2ccccc21` [OXCARBAZEPINE], the IC50 entry in test [1], in test [2], in test [3] (cho-k1), in test [4], in test [5] and in test [6] was “Not Active” each time. Besides, the IC50 result in test [7] is listed as “Not Active”. In addition, the Ki result in test [2], in test [6] and in test [7] was “Not Active” each time.
As to `COc1ccnc(C[S+]([O-])c2nc3ccc(OC(F)F)cc3[nH]2)c1OC` (centres undefined) [PANTOPRAZOLE], the 50% inhibitory concentration (IC50) result in test [1], in test [2], in test [3] (cho-k1), in test [4], in test [5] and in test [6] was “Not Active” each time. For the same compound, the 50% inhibitory concentration (IC50) result in test [7] is given as “Not Active”. The Ki entry in test [2], in test [6] and in test [7] was “Not Active” each time.
Regarding `NNCCc1ccccc1` [PHENELZINE], the concentration for half-maximal inhibition (IC50) entry in test [1], in test [2], in test [3] (cho-k1), in test [4], in test [5] and in test [6] was “Not Active” in each case. Moreover, the IC50 entry in test [7] is on record as “Not Active”. Also, the inhibitory constant (Ki) entry in test [2], in test [6] and in test [7] was “Not Active” in each case.
On to `CCc1ccc(CCOc2ccc(CC3SC(=O)NC3=O)cc2)nc1` (centres undefined) [PIOGLITAZONE], for which the half-inhibitory concentration (IC50) result in test [1], in test [2], in test [3] (cho-k1), in test [4], in test [5] and in test [6] was “Not Active” in each case. The IC50 entry in test [7] is reported as “Not Active”. The Ki entry in test [2], in test [6] and in test [7] was “Not Active” each time.
For the compound `CCCNC(C)C(=O)Nc1ccccc1C` (centres undefined) [PRILOCAINE], the 50% inhibitory concentration (IC50) result in test [1], in test [2], in test [3] (cho-k1), in test [4], in test [5] and in test [6] was “Not Active” each time. In test [7], the half-maximal inhibitory concentration (IC50) entry is reported as “Not Active”. Also, the Ki entry in test [2], in test [6] and in test [7] was “Not Active” each time.
As to `CCN(CC)CCNC(=O)c1ccc(N)cc1` [PROCAINAMIDE], the half-inhibitory concentration (IC50) result in test [1], in test [2], in test [3] (cho-k1), in test [4], in test [5] and in test [6] was “Not Active” throughout. In addition, the IC50 result in test [7] is “Not Active”. Moreover, the inhibitory constant (Ki) result in test [2], in test [6] and in test [7] was “Not Active” each time.
`CCN(CC)CCCC(C)Nc1c2ccc(Cl)cc2nc2ccc(OC)cc12` (centres undefined) [QUINACRINE]: the concentration for half-maximal inhibition (IC50) result in test [1] is “Not Active”; in test [2], “Not Active”; in test [3] (read-out: IC50) it was 964 nM; in test [4] it was “Not Active”; in test [5] it was “Not Active”; in test [6], “Not Active”. The IC50 entry in test [7] is “Not Active”. Moreover, the inhibitory constant (Ki) entry in test [2] was “Not Active”; in test [3] (read-out: Ki), 343 nM; in test [6], “Not Active”; in test [7], “Not Active”.
For the compound `C[C@]12C=CC(=O)C=C1CC[C@H]1[C@@H]3C[C@@H](O)[C@](O)(C(=O)CO)[C@@]3(C)C[C@H](O)[C@@]12F` [TRIAMCINOLONE], the concentration for half-maximal inhibition (IC50) result in test [1], in test [2], in test [3] (cho-k1), in test [4], in test [5] and in test [6] was “Not Active” each time. Besides, the IC50 result in test [7] is recorded as “Not Active”. In addition, the Ki entry in test [2], in test [6] and in test [7] was “Not Active” throughout.
Take `CC[C@]1(O)C[C@@H]2CN(CCc3c([nH]c4ccccc34)[C@@](C(=O)OC)(c3cc4c(cc3OC)N(C)[C@H]3[C@@](O)(C(N)=O)[C@H](O)[C@]5(CC)C=CCN6CC[C@]43[C@@H]65)C2)C1` [VINDESINE]: the IC50 entry in test [1], in test [2], in test [3] (cho-k1), in test [4], in test [5] and in test [6] was “Not Active” throughout. Besides, in test [7], the half-maximal inhibitory concentration (IC50) result is “Not Active”. Also, the Ki entry in test [2], in test [6] and in test [7] was “Not Active” throughout.
For `CCN(C(C)=O)c1cccc(-c2ccnc3c(C#N)cnn23)c1` [ZALEPLON], the concentration for half-maximal inhibition (IC50) entry in test [1] was “Not Active”; in test [2], “Not Active”; in test [3] (cho-k1), “Not Active”; in test [4] it was “Not Active”; in test [5], “Not Active”; in test [6] (read-out: IC50) it was 412 nM. Further, in test [7], the half-inhibitory concentration (IC50) result was “Not Active”. Also, the inhibition constant (Ki) result was “Not Active” in test [2], 336 nM in test [6] (read-out: Ki) and “Not Active” in test [7].
Turning to COBALTOUS CHLORIDE, the IC50 result in test [1], in test [2], in test [3] (cho-k1), in test [4], in test [5] and in test [6] was “Not Active” in each case. The half-maximal inhibitory concentration (IC50) result in test [7] is recorded as “Not Active”. The inhibition constant Ki entry in test [1], in test [2], in test [3] (cho-k1), in test [4], in test [5] and in test [6] was “Not Active” throughout. Moreover, in test [7], the Ki entry is recorded as “Not Active”.
For COLISTIN, the IC50 result in test [1], in test [2], in test [3] (cho-k1), in test [4], in test [5] and in test [6] was “Not Active” in each case. For the same compound, the IC50 result in test [7] is “Not Active”. Moreover, the Ki entry in test [1], in test [2], in test [3] (cho-k1), in test [4], in test [5] and in test [6] was “Not Active” each time. In test [7], the inhibitory constant (Ki) result is “Not Active”.
